Results: US10294227B2, “Compounds” (UNIVERSITY COURT OF THE UNIVERSITY OF EDINBURGH, priority 2015, dated 2019)
pEC50, pIC50: −log10 of the molar value. Where two headings read alike, the source gives them in different places.

What was measured:
YES = YES (Homo sapiens (Human), UniProt P07947); assay: Kinase screening assay (IC50)
FYN = FYN (Homo sapiens (Human), UniProt P06241); assay: Kinase screening assay (IC50)
PDGFRa = PDGFRa (Homo sapiens (Human), UniProt P16234); assay: Kinase screening assay (IC50); assay type: biochemical
RET = RET (Homo sapiens (Human), UniProt P07949); assay: Kinase screening assay (IC50)
KIT = KIT (Homo sapiens (Human), UniProt P10721); assay: Kinase screening assay (IC50)
SRC = SRC (Homo sapiens (Human), UniProt P12931); assay: Kinase screening assay (IC50); assay type: biochemical; settings: for pIC50: 10 μM ATP, read-out: Target inhibition (IC50) SRC
mTOR = mTOR (Homo sapiens (Human), UniProt P42345); assay: Kinase screening assay (IC50); assay type: biochemical
ABL = ABL (Homo sapiens (Human), UniProt P00519); assay: Kinase screening assay (IC50); assay type: biochemical
FGR = FGR (Homo sapiens (Human), UniProt P09769); assay: Kinase screening assay (IC50); settings: read-out: Target inhibition (IC50) FGR; 10 μM ATP
LCK = LCK (Homo sapiens (Human), UniProt P06239); assay: Kinase screening assay (IC50)
HCK = HCK (Homo sapiens (Human), UniProt P08631); assay: Kinase screening assay (IC50); settings: read-out: Target inhibition (IC50) HCK; 10 μM ATP
FRK/PTK5 = FRK/PTK5 (Homo sapiens (Human), UniProt P42685); assay: Kinase screening assay (IC50); settings: read-out: Target inhibition (IC50) FRK/PTK5; 10 μM ATP
LYN = LYN (Homo sapiens (Human), UniProt P07948); assay: Kinase screening assay (IC50); settings: read-out: Target inhibition (IC50) LYN; 10 μM ATP
BLK = BLK (Homo sapiens (Human), UniProt P51451); assay: Kinase screening assay (IC50); settings: read-out: Target inhibition (IC50) BLK; 10 μM ATP
MCF7 cells = assay: Cell viability assay (PrestoBlue); assay type: cell-based; settings: Homo sapiens, MCF7, 120 h; cell viability at day 5; read-out: Antiproliferative activity (EC50) MCF7
MDA-MB-231 cells = assay: Cell viability assay (PrestoBlue); assay type: cell-based; settings: Homo sapiens, MDA-MB-231, 120 h, read-out: Antiproliferative activity (EC50) MDA-MB-231; cell viability at day 5
[1] = system: SYF fibroblasts (deficient for Src, Yes, and Fyn); assay: Cell viability assay (PrestoBlue); assay type: cell-based, murine; settings: Mus musculus, Fibroblast, 120 h; cell viability at day 5; read-out: Antiproliferative activity (EC50) SYF (−/− Src)
[2] = read-out: Target inhibition (IC50) YES, 10 μM ATP
[3] = 10 μM ATP, read-out: Target inhibition (IC50) PDGFRa
[4] = read-out: Target inhibition (IC50) RET, 10 μM ATP
[5] = read-out: Target inhibition (IC50) KIT, 10 μM ATP
[6] = 10 μM ATP, read-out: Target inhibition (IC50) mTOR
[7] = 10 μM ATP, read-out: Target inhibition (IC50) ABL
[8] = read-out: Target inhibition (IC50) LCK, 10 μM ATP

KIT, sequence (P10721 26-976): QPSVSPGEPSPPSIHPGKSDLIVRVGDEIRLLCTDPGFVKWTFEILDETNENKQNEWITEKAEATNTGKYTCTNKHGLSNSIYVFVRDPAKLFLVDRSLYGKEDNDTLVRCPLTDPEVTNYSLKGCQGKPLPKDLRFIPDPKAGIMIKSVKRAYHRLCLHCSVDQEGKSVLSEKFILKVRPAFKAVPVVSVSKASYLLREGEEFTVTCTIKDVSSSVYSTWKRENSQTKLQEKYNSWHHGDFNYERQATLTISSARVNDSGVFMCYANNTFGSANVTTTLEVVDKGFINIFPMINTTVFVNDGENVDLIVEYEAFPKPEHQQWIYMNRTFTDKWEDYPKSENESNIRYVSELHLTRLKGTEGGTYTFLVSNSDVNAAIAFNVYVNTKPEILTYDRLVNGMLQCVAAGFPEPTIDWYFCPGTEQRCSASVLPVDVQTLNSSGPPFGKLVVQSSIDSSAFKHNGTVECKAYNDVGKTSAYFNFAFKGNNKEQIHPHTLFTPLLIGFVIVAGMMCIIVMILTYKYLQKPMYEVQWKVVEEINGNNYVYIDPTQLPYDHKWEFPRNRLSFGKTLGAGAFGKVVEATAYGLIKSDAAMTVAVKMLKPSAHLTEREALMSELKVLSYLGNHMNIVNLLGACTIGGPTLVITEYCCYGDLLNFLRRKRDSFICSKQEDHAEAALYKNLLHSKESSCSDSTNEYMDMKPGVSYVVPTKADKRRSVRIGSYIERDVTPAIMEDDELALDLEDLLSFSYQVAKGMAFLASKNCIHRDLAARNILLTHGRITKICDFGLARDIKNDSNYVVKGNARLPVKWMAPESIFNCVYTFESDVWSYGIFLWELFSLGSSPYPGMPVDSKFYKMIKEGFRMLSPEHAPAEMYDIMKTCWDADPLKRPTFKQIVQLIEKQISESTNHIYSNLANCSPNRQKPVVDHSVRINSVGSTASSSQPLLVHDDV
LCK, sequence (P06239 whole entry): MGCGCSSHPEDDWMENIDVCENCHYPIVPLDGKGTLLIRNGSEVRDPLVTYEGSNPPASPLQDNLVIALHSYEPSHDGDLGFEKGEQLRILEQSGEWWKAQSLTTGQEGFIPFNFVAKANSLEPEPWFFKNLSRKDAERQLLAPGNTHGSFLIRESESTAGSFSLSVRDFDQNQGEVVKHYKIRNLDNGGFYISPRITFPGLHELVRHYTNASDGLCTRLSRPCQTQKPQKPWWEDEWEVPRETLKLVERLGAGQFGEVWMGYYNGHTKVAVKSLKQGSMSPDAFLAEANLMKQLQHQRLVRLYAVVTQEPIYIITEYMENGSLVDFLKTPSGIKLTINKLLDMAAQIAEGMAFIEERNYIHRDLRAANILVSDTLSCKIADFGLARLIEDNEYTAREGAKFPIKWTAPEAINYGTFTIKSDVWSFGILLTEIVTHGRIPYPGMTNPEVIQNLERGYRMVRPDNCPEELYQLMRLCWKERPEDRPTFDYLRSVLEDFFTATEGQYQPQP
PDGFRa, sequence (P16234 24-1089): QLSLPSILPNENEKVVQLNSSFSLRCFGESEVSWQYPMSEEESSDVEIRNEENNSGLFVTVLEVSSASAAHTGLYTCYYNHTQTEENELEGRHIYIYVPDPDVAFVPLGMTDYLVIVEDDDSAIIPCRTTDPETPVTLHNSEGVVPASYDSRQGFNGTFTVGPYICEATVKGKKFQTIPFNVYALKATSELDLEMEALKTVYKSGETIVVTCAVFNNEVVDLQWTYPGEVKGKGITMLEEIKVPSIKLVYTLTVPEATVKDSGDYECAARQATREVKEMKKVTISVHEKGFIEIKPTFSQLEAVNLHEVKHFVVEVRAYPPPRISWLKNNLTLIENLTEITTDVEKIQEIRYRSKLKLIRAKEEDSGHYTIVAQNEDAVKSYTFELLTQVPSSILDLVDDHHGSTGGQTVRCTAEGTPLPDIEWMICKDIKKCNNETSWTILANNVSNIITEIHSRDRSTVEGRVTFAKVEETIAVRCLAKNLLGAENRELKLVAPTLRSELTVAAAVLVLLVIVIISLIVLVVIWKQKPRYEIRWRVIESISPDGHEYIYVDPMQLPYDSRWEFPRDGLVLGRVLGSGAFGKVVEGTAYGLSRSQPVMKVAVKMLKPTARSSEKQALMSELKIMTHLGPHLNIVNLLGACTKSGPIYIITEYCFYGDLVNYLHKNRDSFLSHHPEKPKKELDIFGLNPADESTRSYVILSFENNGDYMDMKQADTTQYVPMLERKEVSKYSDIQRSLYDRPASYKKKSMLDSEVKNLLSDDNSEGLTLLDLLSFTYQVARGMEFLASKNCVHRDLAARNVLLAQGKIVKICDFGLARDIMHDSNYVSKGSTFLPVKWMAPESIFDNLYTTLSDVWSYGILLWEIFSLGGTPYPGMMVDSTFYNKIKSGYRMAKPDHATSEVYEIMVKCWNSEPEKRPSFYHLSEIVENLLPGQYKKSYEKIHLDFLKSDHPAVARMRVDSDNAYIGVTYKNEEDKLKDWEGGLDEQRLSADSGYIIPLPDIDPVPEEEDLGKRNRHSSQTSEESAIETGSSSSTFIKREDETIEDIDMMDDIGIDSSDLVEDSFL
FGR, sequence (P09769 whole entry): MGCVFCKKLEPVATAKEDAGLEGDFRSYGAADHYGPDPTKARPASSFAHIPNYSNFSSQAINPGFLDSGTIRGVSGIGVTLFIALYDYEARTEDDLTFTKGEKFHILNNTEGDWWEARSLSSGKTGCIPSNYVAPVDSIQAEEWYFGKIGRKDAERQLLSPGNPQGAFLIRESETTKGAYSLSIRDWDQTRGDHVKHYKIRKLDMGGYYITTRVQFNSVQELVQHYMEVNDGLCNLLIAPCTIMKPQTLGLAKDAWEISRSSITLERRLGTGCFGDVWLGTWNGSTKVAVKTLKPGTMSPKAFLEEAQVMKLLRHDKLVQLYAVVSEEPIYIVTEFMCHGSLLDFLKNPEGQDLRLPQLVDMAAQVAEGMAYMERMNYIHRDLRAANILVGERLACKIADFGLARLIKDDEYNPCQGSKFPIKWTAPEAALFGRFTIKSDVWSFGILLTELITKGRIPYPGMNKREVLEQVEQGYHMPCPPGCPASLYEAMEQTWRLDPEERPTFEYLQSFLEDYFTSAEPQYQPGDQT
SRC, sequence (P12931 whole entry, looked up): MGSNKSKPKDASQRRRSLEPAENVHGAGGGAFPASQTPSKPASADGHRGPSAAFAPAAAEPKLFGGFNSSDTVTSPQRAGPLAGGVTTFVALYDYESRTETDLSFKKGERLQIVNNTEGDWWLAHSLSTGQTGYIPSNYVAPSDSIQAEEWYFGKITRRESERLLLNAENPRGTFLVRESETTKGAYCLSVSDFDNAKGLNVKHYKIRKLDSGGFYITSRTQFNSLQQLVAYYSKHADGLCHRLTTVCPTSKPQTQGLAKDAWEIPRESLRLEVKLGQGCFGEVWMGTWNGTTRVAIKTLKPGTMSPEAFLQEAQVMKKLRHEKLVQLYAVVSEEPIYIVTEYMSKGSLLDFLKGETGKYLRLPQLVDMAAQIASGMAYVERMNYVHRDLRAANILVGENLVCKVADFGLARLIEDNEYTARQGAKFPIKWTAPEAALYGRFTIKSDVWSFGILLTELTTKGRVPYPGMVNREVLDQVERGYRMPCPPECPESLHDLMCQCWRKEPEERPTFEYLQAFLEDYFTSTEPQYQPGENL
FYN, sequence (P06241 whole entry): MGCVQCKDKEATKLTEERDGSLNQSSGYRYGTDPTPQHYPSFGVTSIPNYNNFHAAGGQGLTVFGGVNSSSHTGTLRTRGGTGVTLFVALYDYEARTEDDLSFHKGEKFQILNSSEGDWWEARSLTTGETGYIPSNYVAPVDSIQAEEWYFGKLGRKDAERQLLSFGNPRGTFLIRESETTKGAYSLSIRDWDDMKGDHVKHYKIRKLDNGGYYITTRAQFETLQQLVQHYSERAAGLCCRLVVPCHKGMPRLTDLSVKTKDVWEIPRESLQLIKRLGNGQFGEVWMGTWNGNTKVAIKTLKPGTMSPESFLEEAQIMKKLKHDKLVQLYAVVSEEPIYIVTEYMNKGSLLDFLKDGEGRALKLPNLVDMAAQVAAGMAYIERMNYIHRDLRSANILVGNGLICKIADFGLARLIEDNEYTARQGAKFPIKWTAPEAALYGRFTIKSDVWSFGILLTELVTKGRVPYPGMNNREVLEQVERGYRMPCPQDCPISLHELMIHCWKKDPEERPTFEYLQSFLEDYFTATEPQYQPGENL
YES, sequence (P07947 whole entry): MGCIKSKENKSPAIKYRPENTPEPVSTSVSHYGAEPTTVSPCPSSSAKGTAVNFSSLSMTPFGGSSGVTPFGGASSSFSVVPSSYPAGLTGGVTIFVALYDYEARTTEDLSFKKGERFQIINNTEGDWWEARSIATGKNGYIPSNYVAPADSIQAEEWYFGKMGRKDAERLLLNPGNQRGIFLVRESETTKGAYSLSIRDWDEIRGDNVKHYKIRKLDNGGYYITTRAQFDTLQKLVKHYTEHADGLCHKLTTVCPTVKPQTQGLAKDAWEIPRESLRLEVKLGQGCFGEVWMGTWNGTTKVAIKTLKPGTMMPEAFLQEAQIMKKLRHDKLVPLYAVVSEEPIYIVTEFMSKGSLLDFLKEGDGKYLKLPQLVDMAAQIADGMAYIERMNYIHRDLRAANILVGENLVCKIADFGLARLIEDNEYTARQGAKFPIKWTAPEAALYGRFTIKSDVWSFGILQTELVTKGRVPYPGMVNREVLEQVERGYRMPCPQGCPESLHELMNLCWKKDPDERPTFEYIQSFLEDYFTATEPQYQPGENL

pIC50 (YES; [2])	pIC50 (FYN)	pIC50 (PDGFRa; [3])	pIC50 (RET; [4])	pIC50 (KIT; [5])	pIC50 (SRC)	pIC50 (mTOR; [6])	pIC50 (ABL; [7])	pIC50 (FGR)	SMILES	pIC50 (LCK; [8])	other results
> 8.00	6.00 to 7.00	< 6.00	< 6.00	< 6.00	7.00 to 8.00	< 6.00	< 6.00	> 8.00	COc1cc(-c2nn(CCN3CCC(N(C)C)CC3)c3ncnc(N)c23)ccc1Cc1ncc(C)o1 [Compound 584, 1-[2-[4-(dimethylamino)-1-piperidyl]ethyl]-3-[3-methoxy-4-[(5-methyloxazol-2-yl)methyl]phenyl]pyrazolo[3,4-d]pyrimidin-4-amine]	> 8.00	
> 8.00	6.00 to 7.00	< 6.00	< 6.00	< 6.00	7.00 to 8.00	< 6.00	< 6.00	> 8.00	CN(C)C1CCN(CCn2nc(-c3ccc(NC(=O)OC(C)(C)C)cc3)c3c(N)ncnc32)CC1 [Compound 543]		pIC50 (LCK): 7.00 to 8.00
									COc1cc(-c2nn(CCN3CCC(N(C)C)CC3)c3ncnc(N)c23)ccc1N [Compound 532, 3-(4-amino-3-methoxy-phenyl)-1-[2-[4-(dimethylamino)-1-piperidyl]ethyl]pyrazolo[3,4-d]pyrimidin-4-amine]		pEC50 (MCF7 cells): 5.00 to 6.00; pEC50 (MDA-MB-231 cells): 5.00 to 6.00; pEC50 [1]: < 5.00

SMILES	pIC50 (YES; [2])	pIC50 (FYN)	pIC50 (PDGFRa; [3])	pIC50 (RET; [4])	pIC50 (KIT; [5])	pIC50 (SRC)	pIC50 (mTOR; [6])	pIC50 (ABL; [7])	pIC50 (FGR)	pIC50 (LCK; [8])	other results
COc1cc(-c2nn(CCN3CCC(CN(C)C)CC3)c3ncnc(N)c23)ccc1NC(=O)OC(C)(C)C [Compound 503, tert-butyl N-[4-[4-amino-1-[2-[4-(dimethylaminomethyl)-1-piperidyl]ethyl]pyrazolo[3,4-d]pyrimidin-3-yl]-2-methoxy-phenyl]carbamate]	> 8.00	8.34	< 6.00	< 6.00	< 6.00	> 8.00	< 6.00	6.00 to 7.00	> 8.00	> 8.00	pIC50 (HCK): > 8.00; pIC50 (YES): > 9.30; potency (IC50) against Yes, in words (YES): sub-nano molar; pIC50 (FYN; read-out: Target inhibition (IC50) FYN, 10 μM ATP): > 8.00; pIC50 (PDGFRa; recombinant kinase, read-out: IC50 PDGFRα): < 5.00; pIC50 (RET): < 5.00; pIC50 (FRK/PTK5): > 8.00; pIC50 (KIT): 5.15; pIC50 (LYN): > 8.00; pIC50 (BLK): > 8.00; potency (IC50) against Src, in words (SRC): sub-nano molar; pIC50 (mTOR; recombinant kinase, read-out: IC50 mTOR): < 5.00; pIC50 (ABL; recombinant kinase, read-out: IC50 Abl): 6.72
